ChEMBL document CHEMBL5537197, “Discovery of Novel Coumarin-quinolinium Derivatives as Pan-KRAS Translation Inhibitors by Targeting 5'-UTR RNA G-Quadruplexes” (J Med Chem, 2024)
Active and inactive are the calls of the source. The rule behind the calls is not given here.

Legend:
[1] = Cytotoxicity against human PANC-1 cells […] assessed as cell growth inhibition incubated for 24 hrs by MTT assay; type: functional, cell-based; settings: PANC-1, 24 h
PANC-1 [2] = experiment: Cytotoxicity against human PANC-1 cells overexpressing KRAS G12D mutant assessed as cell death incubated for 24 hrs by MTT assay; type: functional, cell-based
NCI-H358 = experiment: Cytotoxicity against human NCI-H358 cells harboring KRAS G12C mutant assessed as cell growth inhibition incubated for 24 hrs by MTT assay; type: functional, cell-based; settings: NCI-H358, 24 h
[3] = Cytotoxicity against human LX2 cells harboring wild-type KRAS assessed as cell growth inhibition incubated for 24 hrs by MTT assay; type: toxicity, cell-based, LX-2
[4] = Cytotoxicity against human HFL1 cells harboring wild-type KRAS assessed as cell growth inhibition incubated for 24 hrs by MTT assay; type: toxicity, cell-based
[5] = tested on: GTPase KRas (Homo sapiens), P01116 [G12C]; experiment: Inhibition of KRAS G12C mutant in human MIA PaCa-2 cells at 2.5 uM by Western blot analysis; type: cell-based; settings: time <= 48.0 hrs, TDE = time-dependent effect
Chain of GTPase KRas (Homo sapiens), P01116 [G12C] (P01116 whole entry G12C): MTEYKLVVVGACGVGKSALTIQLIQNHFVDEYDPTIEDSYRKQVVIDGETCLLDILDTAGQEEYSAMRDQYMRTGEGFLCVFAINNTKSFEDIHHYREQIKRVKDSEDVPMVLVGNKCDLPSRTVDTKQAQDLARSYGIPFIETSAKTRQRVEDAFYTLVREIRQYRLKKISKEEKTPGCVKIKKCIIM

[6] = tested on: GTPase KRas (Homo sapiens), P01116 [G12D]; experiment: Inhibition of KRAS G12D mutant in human PANC-1 cells incubated for 24 hrs by Western blot analysis; type: cell-based; settings: dose <= 5.0 µM
Chain of GTPase KRas (Homo sapiens), P01116 [G12D] (P01116 whole entry G12D, looked up): as the sequence (P01116 whole entry G12C) above, with C12D counted along it

PANC-1 [7] = experiment: Effect on NRAS level in human PANC-1 cells harboring KRAS G12D mutant at 1.25 to 5 uM by Western blot analysis; type: functional, cell-based; settings: dose 1.25-5 µM
MIA PaCa-2 [8] = experiment: Effect on KRAS mRNA level in human MIA PaCa-2 cells harboring KRAS G12C mutant at upto 5 uM incubated upto 48 hrs by RT-qPCR analysis; type: functional, cell-based
Quadruplex DNA = experiment: Binding affinity to SS12 G-Quadruplex (unknown origin) assessed as dissociation constant by fluorescence spectroscopy; type: nucleic-acid assay
Quadruplex RNA [9] = experiment: Binding affinity to KRAS RNA G-Quadruplex (unknown origin) assessed as melting temperature at 25 uM at 25 to 95 degreeC by CD spectroscopy (reference value: 71.4 degreeC); type: nucleic-acid assay
Quadruplex RNA [10] = experiment: Binding affinity to NRAS RNA G-Quadruplex (unknown origin) assessed as melting temperature at 25 uM at 25 to 95 degreeC by CD spectroscopy (reference value: 82.2 degreeC); type: nucleic-acid assay
Quadruplex RNA [11] = experiment: Inhibition of KRAS RNA G-Quadruplex (unknown origin) translation transfected in HEK293T cells assessed as decrease in relative luciferase activity upto 5 uM incubated for 24 hrs by Dual-luciferase reporter assay; type: cell-based
[12] = biological target: GTPase KRas (Homo sapiens) (UniProt P01116); experiment: Inhibition of KRAS in human MIA PaCa-2 cells assessed as decrease in total protein level at 1.25 to 5 uM incubated for 24 hrs by Western blot analysis; type: cell-based; settings: dose 1.25-5 µM
Chain of GTPase KRas (Homo sapiens) (P01116 whole entry, looked up): as the sequence (P01116 whole entry G12C) above, with C12G counted along it

[13] = biological target: GTPase KRas (Homo sapiens) (UniProt P01116); experiment: Inhibition of KRAS in human MIA PaCa-2 cells assessed as decrease in MEK phosphorylation incubated for 24 hrs by Western blot analysis; type: cell-based; settings: dose 1.25-5 µM
[14] = biological target: GTPase KRas (Homo sapiens) (UniProt P01116); experiment: Inhibition of KRAS in human MIA PaCa-2 cells assessed as decrease in mTOR phosphorylation incubated for 24 hrs by Western blot analysis; type: cell-based; settings: dose 1.25-5 µM
MIA PaCa-2 [15] = experiment: Inhibition of cell proliferation of human MIA PaCa-2 cells at 0.32 to 1.25 uM incubated for 10 days by colony formation assay relative to control; type: functional; settings: dose 0.32-1.25 µM, time 10 day
MIA PaCa-2 [16] = experiment: Induction of cell cycle arrest at G2/M phase in human MIA PaCa-2 cells incubated for 24 hrs by PI staining based HCS analysis; type: functional; settings: dose 1.25-5 µM
MIA PaCa-2 [17] = experiment: Antitumor activity against human MIA PaCa-2 cells xenografted in BALB/C-nu/nu mouse model assessed as reduction in tumor weight at 2.5 to 5 mg/kg,ip everyday for 18 days; type: functional, organism-based; settings: dose 2.5-5 mg/kg, time 18.0 day
MIA PaCa-2 [18] = experiment: Antitumor activity against human MIA PaCa-2 cells xenografted in BALB/C-nu/nu mouse model assessed as tumor growth inhibition at 2.5 mg/kg,ip everyday for 18 days relative to control; type: functional; settings: MIA PaCa-2, 432 h, time 18 day, read-out: TGI
MIA PaCa-2 [19] = experiment: Antitumor activity against human MIA PaCa-2 cells xenografted in BALB/C-nu/nu mouse model assessed as tumor growth inhibition at 5 mg/kg,ip everyday for 18 days relative to control; type: functional; settings: MIA PaCa-2, 432 h, time 18 day, read-out: TGI
[20] = Toxicity in BALB/C-nu/nu mouse model xenografted with human MIA PaCa-2 cells assessed as signs of pain at 2.5 to 5 mg/kg,ip everyday for 18 days; type: organism-based; settings: in vivo, 432 h, dose 2.5-5 mg/kg, time 18 day
MIA PaCa-2 [21] = experiment: In vivo inhibition of KRAS in human MIA PaCa-2 cells xenografted in BALB/C-nu/nu mouse model at 2.5 to 5 mg/kg,ip everyday for 18 days by Western blot analysis; type: functional, organism-based; settings: dose 2.5-5 mg/kg, time 18.0 day

CCN(CC)c1ccc2cc(/C=C/c3ccc4cc(F)c(NCCN5CCCC5)cc4[n+]3C)c(=O)oc2c1.[I-]
IC50 [1]: > 40 µM
Activity (PANC-1 [2]): inactive
IC50 (NCI-H358): 4.8 µM
IC50 at 24 h [3]: > 40 µM
IC50 at 24 h [4]: > 40 µM
inhibition [5]: Tde
inhibition [6]: Dose-Dependent Effect
Activity (PANC-1 [7]): inactive
Activity (MIA PaCa-2 [8]): inactive
Kd (Quadruplex DNA): > 5 µM
Tm (Quadruplex RNA [9]): 51.3 °C
Tm (Quadruplex RNA [10]): 78.7 °C
inhibition (Quadruplex RNA [11]): Active
inhibition [12]: Active
inhibition [13]: Dose-Dependent Effect
inhibition [14]: Dose-Dependent Effect
inhibition (INH) (MIA PaCa-2 [15]): 100%
Activity (MIA PaCa-2 [16]): Dose-Dependent Effect
Activity (MIA PaCa-2 [17]): Active
inhibition in vivo at 2.5 mg/kg (MIA PaCa-2 [18]): 62%
inhibition in vivo at 5 mg/kg (MIA PaCa-2 [19]): 70.3%
Activity [20]: Non-Toxic
Activity (MIA PaCa-2 [21]): Active
